In series [1] the target is T1, aldose reductase enzyme obtained from rat lens (Rattus norvegicus, UniProt P07943).
T1 construct: partially purified aldose reductase enzyme obtained from rat lens; from tissue; host or cells: rat lens
Kind of series: Inhibition of partially purified aldose reductase from rat lens. The format is biochemical. The settings on record: read-out: IC50 (concentration of drug that inhibits 50% of the enzyme activity). From the text:
In every case the substrate employed was partially purified aldose reductase enzyme obtained from rat lens or human placenta.

The target of series [2] is T2, aldose reductase enzyme obtained from human placenta (Homo sapiens, UniProt P15121).
T2 construct: partially purified aldose reductase enzyme obtained from rat lens or human placenta; from tissue; host or cells: human placenta
Kind of series: Inhibition of partially purified aldose reductase from human placenta. The format is biochemical. Particulars: for IC50: HUMAN, human placenta enzyme, read-out: IC50 (concentration of drug that inhibits 50% of the enzyme activity). How it is done:
The spiro-hydantoin compounds of Preparations C and D were tested for their ability to reduce or inhibit aldose reductase enzyme activity via the procedures of P. F. Kador et. al. as described in Biophysical Chemistry, 8 (1978) 81-85 and P. F. Kador et. al. as described in Documenta Ophthamologicia, 18 (1979) 117. In every case the […] employed was partially purified aldose reductase enzyme obtained from rat lens or human placenta.

Series [3] has as its system membrane bound cytochrome containing oxidoreductase enzymes. Kind of series: In vivo conversion of the methylthio group to methylsulfinyl. The settings on record: enzymes common to liver, kidney and lung.

In the case of “dl-spiro-(6-methylthio-chroman-4,4'-imidazolidine)-2',5'-dione”, the IC50 was 270 nM in series [1] and 0.66 µM in series [2]. Moreover, the “conversion of methylthio group to methylsulfinyl derivative” value in series [3] is “converted to the methylsulfinyl derivative”.
For `C[S+]([O-])c1ccc2c(c1)C1(CCO2)NC(=O)NC1=O` (centres unmarked) [D, spiro-(6-methylsulfinylchroman-4,4'-imidazolidine)-2',5'-dione], the IC50 in series [2] came to 12 µM. Besides, the “in vitro inhibition of human placental aldose reductase” value in series [2] (in vitro) is recorded as “inhibit human placental aldose reductase”.

The record behind these values is patent US4464385A, “Treatment of diabetic complications with hydantoins” (Alcon Laboratories, Inc., priority 1982, dated 1984).
